Assays:
[1] = Solubility in natural deep eutectic solvents (saturated solutions, UV-VIS); assay type: physicochemical; conditions: 1,2-propanediol: choline chloride: water (1:1:1), water 7.71%; 24 h at 50 °C; mean ± SD, n = 3
Method: As an extension of these studies, we have investigated the solubility of six insecticidal metabolites in a variety of NADES. The solvent selection framework consisted of the following steps: • Preliminary solvent screening: a pre-selected set of 20 NADES was used as a starting point to identify and rank potential NADES candidates (Table 3). Selection constraints were imposed on important properties such as viscosity and stability.
• Secondary screening: solubility tests were performed to determine the best solvent for each of the metabolites. Saturated solutions, generated by adding an excess amount of each compound to different NADES, were kept under constant stirring (1100 rpm) for 24 h at 50 °C. The 20 candidates were ranked in decreasing order of solvent power. • Solubility verification: For the verification of solubilities, samples were centrifuged for 5 min at 2000 rpm and subsequently diluted suitably with methanol for spectrophotometric analysis (UV-1800 UV–VIS spectrophotometer, Shimadzu Europe GmbH, Duisburg, Germany).

[2] = tested on: Lymantria dispar; design: method as in Beninger and Abou-Zaid (1997); conditions: 0.05%, day 15; ref Beninger and Abou-Zaid (1997); cited from earlier work
[3] = tested on: Acyrthosiphon pisum; design: method as in Goławska et al. (2014); conditions: ref Goławska et al. (2014), cited from earlier work
[4] = tested on: Spodoptera frugiperda; design: method as in Diaz Napal and Palacios (2015); conditions: 100 µg/cm^2; ref Diaz Napal and Palacios (2015); cited from earlier work
[5] = tested on: Spodoptera frugiperda; design: method as in Gallo et al. (2006); conditions: 0.1 mg/g; ref Gallo et al. (2006); cited from earlier work
[6] = tested on: Helicoverpa armigera; design: method as in Li et al. (2016); conditions: ref Li et al. (2016), cited from earlier work
[7] = tested on: Helicoverpa armigera; design: method as in Liu et al. (2015); conditions: 3 and 10 mg/g; ref Liu et al. (2015); cited from earlier work
[8] = tested on: Bactrocera Cucurbitae; design: method as in Sharma and Sohal (2013); conditions: 125 ppm; ref Sharma and Sohal (2013); cited from earlier work
[9] = tested on: Aphis fabae; design: method as in Lattanzio et al. (2000); conditions: 0.1 M; ref Lattanzio et al. (2000); cited from earlier work
[10] = ref Dai et al. (2013, 2015); cited from earlier work
[11] = tested on: Spodoptera litura; conditions: 0.7–0.8 µg/ml; ref Mallikarjuna et al. (2004); cited from earlier work
[12] = tested on: Pieris rassicae; design: method as in Onkokesung et al. (2014); conditions: applied exogenously at 100 µM; ref Onkokesung et al. (2014); cited from earlier work
[13] = tested on: Helicoverpa zea; design: method as in Summers and Felton (1994); conditions: 4 mM, ref Summers and Felton (1994), cited from earlier work
[14] = tested on: Dalbulus maidis; design: method as in Dowd and Vega (1996); conditions: adults, 400 ppm, in vitro bioassay; ref Dowd and Vega (1996); cited from earlier work
[15] = tested on: Plagiodera versicolora; design: method as in Jassbi (2003); conditions: ref Jassbi (2003); cited from earlier work
[16] = tested on: Agelastica alni; design: method as in Ikonen et al. (2002); conditions: 2.48% by weight, dual choice bioassay; ref Ikonen et al. (2002); cited from earlier work
[17] = tested on: Trichoplusia ni; design: method as in Beninger et al. (2004); conditions: 100 ppm (2.8 mM) and 1000 ppm (28 mM); ref Beninger et al. (2004); cited from earlier work
[18] = tested on: Lymantria dispar; design: method as in Beninger et al. (2004); conditions: 100 ppm (2.8 mM) and 1000 ppm (28 mM); ref Beninger et al. (2004); cited from earlier work
[19] = tested on: Frankliniella occidentalis; design: method as in Leiss et al. (2009a); conditions: 5% (5 mg/ml); ref Leiss et al. (2009a); cited from earlier work

## O=c1c(O)c(-c2ccc(O)c(O)c2)oc2cc(O)cc(O)c12 [Quercetin]
[1]
  Solubility: 44.34 ± 0.76 mg/g
[2]
  Larval weight reduction: Larval growth inhibitor. Larval weight reduced by 33% at 0.05% at day 15
[3]; 100 µg cm^−3
  Probing and feeding deterrence: Probing and feeding deterrent
[3]; higher concentration than 100 µg cm^−3
  Mortality, development time, fecundity: mortality and development time are increased whereas fecundity is decreased
[4]
  Feeding deterrence: Feeding deterrent (57%) at 100 µg/cm^2
[5]
  Larval mortality: 78% Larval mortality at 0.1 mg/g
[6]; 8 mg/g
  Reduction of pupation: 50%
[6]; 16 mg/g
  Reduction of larval weight: ~50%
[6]; 32 mg/g
  Mortality: > 80%
[7]
  Growth, pupation, adult emergence, survival: Deleterious effects growth, pupation and adult emergence, and survivalat 3 and 10 mg/g
[8]
  Food assimilation, larval and pupal weight: Growth regulator and or deterrent: reduction in food assimilation as well as larval and pupal weight at 125 ppm
[9]
  Progeny deposition: Inhibitory activity on progeny deposition 0.1 M
[10]
  Solubility in NADES compared to aqueous solubility: significantly increased
[11]
  Development: Developmental retardation
  Larval mortality: > 60%

## C[C@@H]1O[C@@H](Oc2cc(O)c3c(=O)c(O[C@@H]4O[C@@H](C)[C@H](O)[C@@H](O)[C@H]4O)c(-c4ccc(O)cc4)oc3c2)[C@H](O)[C@H](O)[C@H]1O [kaempferol 3-O-rhamnoside 7-O-rhamnoside]
[12]
  Growth: Growth negatively affected

## O=C(/C=C/c1ccc(O)c(O)c1)O[C@@H]1C[C@](O)(C(=O)O)C[C@@H](O)[C@H]1O [Chlorogenic acid]
[13]; chronic exposure
  Prooxidant effect on midgut proteins: oxidative stress in midgut proteins
[13]
  Development rate, survivorship and pupal weight: Development rate and pupal weight are negatively influenced
[14]
  Antifeedant activity: Antifeedant activity in adults at 400 ppm (in vitro bioassay)
[15]
  Amount with antifeedant activity: Antifeedant activity above 50 µg/disk
[16]
  Feeding deterrence: Feeding deterrent at concentration of 2.48% by weight (dual choice bioassay)
[17]
  Larval growth and development: Reduced larval growth and development at 100 ppm (2.8 mM) and 1000 ppm (28 mM)
[18]
  Larval growth and development: Reduced larval growth and development at 100 ppm (2.8 mM) and 1000 ppm (28 mM)
[19]
  Relative growth rate and survival of first instar larva: Reduced relative growth rate and survival of first instar larva at 5% (5 mg/ml)
[11]
  Development: Developmental retardation
  Larval mortality: > 60%

Reference: PMC5674125, “Towards eco-friendly crop protection: natural deep eutectic solvents and defensive secondary metabolites” (Phytochemistry Reviews, 2017)
